The source of these data is US8779005B2, “Salts of desvenlafaxine and a method of their preparation” (Zentiva k.s., priority 2009, dated 2014).

Each structure is given as a SMILES string. Bounds are passed on as bounds.

The nature of data set [1]: Measurement of equilibrium solubility. Particulars: 24-hour stirring; for Equilibrium solubility at pH 2: pH 2 (0.01 M HCl), 25° C.; for Equilibrium solubility at pH 6.8: phosphate buffer of pH 6.8, 25° C.; for solubility thermodynamic at 24 h: 25 °C, thermodynamic from solid.
The nature of data set [2]: Measurement of the dissolution rate (USP Wood Apparatus, rotary disk method). Particulars: for Dissolution rate constants at pH 2: pH 2 (0.01 M HCl), 37° C.; for Dissolution rate constants at pH 2 / Dissolution rate constants at pH 6.8: rotary disk; for Dissolution rate constants at pH 6.8: phosphate buffer of pH 6.8, 37° C. The format is physicochemical. The procedure:
Measurement of the Dissolution Rate The dissolution rate of desvenlafaxine salts (Table 2) in water at various pH values was measured in a Varian-Vankel System, USP Wood Apparatus (rotary disk method). A disk with the diameter of 5 mm was prepared by compression from about 0.2 g of the substance.

The conditions of data set [3]: in vivo; cited from earlier work.
Where [4] appears, read: dihydrate, Hemioxalate Trihydrate.
Setting [5] is: 0.01 M HCl, pH 2, simulated gastric fluid, Equilibrium solubility at pH 2, pH 2 (0.01 M HCl).
The mark [6] stands for this setting: phosphate buffer, pH 6.8, aqueous buffer, Equilibrium solubility at pH 6.8, phosphate buffer of pH 6.8, 25° C.

With `CN(C)CC(c1ccc(O)cc1)C1(O)CCCCC1` (centres unmarked) [Base, Desvenlafaxine], in data set [1], the “Equilibrium solubility at pH 2” value is recorded as 2 mg/ml and the “Equilibrium solubility at pH 6.8” value came out at 4 mg/ml. In addition, in data set [2], the “Dissolution rate constants at pH 2” value came to 0.6 mg/cm^2/min and the “Dissolution rate constants at pH 6.8” value stood at 0.2 mg/cm^2/min.
With `CN(C)CC(c1ccc(O)cc1)C1(O)CCCCC1` (centres unmarked) [Hemioxalate, hydrate, Desvenlafaxine Hemioxalate Trihydrate], in data set [1] (setting [4]), the “Equilibrium solubility at pH 2” value was determined as 86 mg/ml and the “Equilibrium solubility at pH 6.8” value is recorded as 71 mg/ml. In data set [2] (Hemioxalate Trihydrate), the “Dissolution rate constants at pH 2” value is given as greater than 10 mg/cm^2/min and the “Dissolution rate constants at pH 6.8” value was greater than 10 mg/cm^2/min.
As usually defined, the thermodynamic solubility is solubility found after equilibrating the solid with the medium. Consider `CN(C)CC(c1ccc(O)cc1)C1(O)CCCCC1.O=C(O)CCC(=O)O` (centres unmarked) [Hydrogen succinate hydrate, Desvenlafaxine hydrogen succinate], for which the “Biological availability (absorption of desvenlafaxine in rat intestine) relative to hydrogen fumarate” value in data set [3] is given as “roughly three times higher”. Further, the solubility (thermodynamic) at 24 h in data set [1] (setting [5]) was 53 mg/mL. In data set [1] (setting [6]), this compound showed a thermodynamic solubility at 24 h of 58 mg/mL. For the same compound, in data set [2] (in water, compared with hydrogen fumarate), the “Dissolution speed in water relative to hydrogen fumarate” value was “approximately twice as fast”. For the same compound, in data set [2], the “Dissolution rate constants at pH 2” value is 3.1 mg/cm^2/min and the “Dissolution rate constants at pH 6.8” value is on record as 3.2 mg/cm^2/min.
With `CN(C)CC(c1ccc(O)cc1)C1(O)CCCCC1.O=C(O)/C=C/C(=O)O` (centres unmarked) [Hydrogen fumarate hydrate, Desvenlafaxine hydrogen fumarate], in data set [1] (setting [5]), the thermodynamic solubility at 24 h is 8 mg/mL. The compound further yielded a thermodynamic solubility at 24 h in data set [1] (setting [6]) of 8 mg/mL. For the same compound, in data set [2], the “Dissolution rate constants at pH 2” value was 0.8 mg/cm^2/min and the “Dissolution rate constants at pH 6.8” value is listed as 0.8 mg/cm^2/min.
In the case of `CN(C)CC(c1ccc(O)cc1)C1(O)CCCCC1.O=C(O)C(=O)O` (centres unmarked) [Hydrogen oxalate hydrate, Desvenlafaxine Hydrogen Oxalate Hydrate], the solubility (thermodynamic) at 24 h in data set [1] (setting [5]) is 89 mg/mL. The thermodynamic solubility at 24 h in data set [1] (setting [6]) came out at 63 mg/mL. Moreover, in data set [2], the “Dissolution rate constants at pH 2” value came out at 7.1 mg/cm^2/min and the “Dissolution rate constants at pH 6.8” value came out at 6.0 mg/cm^2/min.
Turning to `CN(C)CC(c1ccc(O)cc1)C1(O)CCCCC1` (centres unmarked) [Hemioxalate, anhydrous, Anhydrous Desvenlafaxine Hemioxalate], in data set [1], the “Equilibrium solubility at pH 2” value is recorded as 92 mg/ml and the “Equilibrium solubility at pH 6.8” value was 80 mg/ml. In data set [2], the “Dissolution rate constants at pH 2” value was determined as 6.6 mg/cm^2/min and the “Dissolution rate constants at pH 6.8” value came to 5.9 mg/cm^2/min.
